Read-outs that look alike come from different tables or passages of the source. Bounds are passed on as bounds.

The text below walks through data of patent publication US20250177383A1, “DI-CYCLOPROPYL BASED IL-17A MODULATORS AND USES THEREOF” (DICE ALPHA, INC., priority 2022, published 2025).

Assay [1] has as its target T1, IL-17A/A (Homo sapiens, UniProt Q16552).
T1 sequence (Q16552 24-155): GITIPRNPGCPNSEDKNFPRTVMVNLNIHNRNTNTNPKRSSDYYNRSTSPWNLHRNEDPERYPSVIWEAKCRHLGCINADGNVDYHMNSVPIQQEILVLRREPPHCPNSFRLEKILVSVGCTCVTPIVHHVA
The assay is described as follows: IL-17A/A HEK-Blue Cell Assay. The class given is cell-based. The note with it: IL-17A/A stimulation, 20 hours, SEAP readout. The procedure:
(§1) The HEK-Blue IL-17 reporter cell line (Fisher #NC1408637) was used for cell-based IL-17A/A inhibition assays. Cells were grown and prepared for assays according to the manufacturer's instructions. This cell line consists of HEK 293 cells that were designed to expressed IL-17R^A, IL-17R^C, and the ActI adapter molecule, the combination of which, when stimulated by IL-17A/A activates a NFκB promoter and drives expression of a recombinant Secreted Alkaline Phosphatase (SEAP) protein. Media from the cells is then added to a development reagent (Quanti-Blue Substrate, Fisher #NC9711613), and read at A630.
Compounds were titrated in DMSO, with a top final compound concentration of 10 uM and added to the cells immediately before adding IL-17A/A (Genscript #Z03228). The cells, compound, and IL-17A/A were then incubated for 20 hours before media was removed for SEAP analysis. The resulting inhibition curve was then analyzed using a Dotmatics screening protocol, and IC50 values were determined using a 4-parameter nonlinear fit. DMSO was added to a universal final concentration of 0.1% to optimize background. IL-17A/A inhibition data is provided in Table 1 for selected compounds.

Assay [2] addresses T2, IL-17A/F (Homo sapiens, UniProt Q16552+Q96PD4).
T2 sequence (Q16552 24-155): T1 sequence (Q16552 24-155)
T2 sequence (Q96PD4 31-163): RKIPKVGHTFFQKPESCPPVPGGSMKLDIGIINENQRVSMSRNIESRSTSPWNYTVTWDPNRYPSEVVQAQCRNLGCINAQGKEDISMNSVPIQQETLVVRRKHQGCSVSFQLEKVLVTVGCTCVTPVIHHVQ
Nature of the assay: IL-17A/F HEK-Blue Cell Assay. The class given is cell-based. Particulars: HEK-Blue IL-17 reporter cells, IL-17A/F stimulation, 20 hours, SEAP readout; read-out: IL17AF HEK Blue pIC50 (converted). As for the experimental part: as §1, with “cell-based IL-17A/F” for “cell-based IL-17A/A”, “expressed IL-17RA,” for “expressed IL-17R^A,”, “(SEAP) geneprotein.” for “(SEAP) protein.”
Compounds were titrated in DMSO and added to the cells immediately before adding IL-17A/A (Custom from R&D systems, untagged IL-17A/F+BSA as a carrier protein). The cells, compound, and IL-17A/A were then incubated for 20 hours before media was removed for SEAP analysis. The resulting inhibition curve was then analyzed using a Dotmatics screening protocol, and IC50 values were determined using a 4-parameter nonlinear fit. DMSO was added to a universal final concentration of 0.1% to optimize background.

The mark [3] stands for this setting: HEK-Blue IL-17 reporter cells, read-out: IL17 AA HEK-5 pIC50 (converted).

As for `CCC(OC)C(=O)N[C@@H](C(=O)N1CCN(C)[C@H](C)C1)[C@@H](C)c1ccc(NC(=O)[C@@H](NC(=O)c2ccnn2CC)C(C2CC2)C2CC2)c(F)c1` (single isomer, unassigned) [Compound 338], the figures for the IC50 in assay [1] (setting [3]) and in assay [2] were less than 10 nM and 10 to 100 nM, respectively.
Take `CCn1nccc1C(=O)N[C@H](C(=O)Nc1ccc([C@H](C)[C@@H](NC(=O)[C@H](C)Nc2ncccn2)C(=O)N2CCN(C)[C@H](C)C2)cc1F)C(C1CC1)C1CC1` [Compound 306]: the IC50 in assay [1] (setting [3]) and in assay [2] was less than 10 nM in each case.
Consider `C[C@@H](c1ccc(NC(=O)[C@@H](NC(=O)C2(F)CC2)C(C2CC2)C2CC2)c(F)c1)[C@@H](NC(=O)N(C)C1CC1)C(=O)N1C[C@H]2CC[C@@H](C1)N2C` [Compound 295], for which the IC50 in assay [1] (setting [3]) was less than 10 nM; in assay [2], 100 to 10000 nM.
`CCn1nccc1C(=O)N[C@H](C(=O)Nc1ccc([C@H](C)[C@@H](NC(=O)[C@H](C)N(C)C2=NCCO2)C(=O)N2CCN(C)[C@H](C)C2)cc1F)C(C1CC1)C1CC1` [Compound 296]: the IC50 in assay [1] (setting [3]) was less than 10 nM; in assay [2] it was 10 to 100 nM.
On the same counts, the results for `CCC(=O)N[C@@H](C(=O)N1CCN(C)[C@H](C)C1)[C@@H](C)c1ccc(NC(=O)[C@@H](NC(=O)c2nonc2C)C(C2CC2)C2CC2)c(F)c1` [Compound 246] are less than 10 nM and 100 to 10000 nM.
On to `CCn1nccc1C(=O)N[C@H](C(=O)Nc1ccc([C@H](C)[C@@H](NC(=O)[C@H](C)OC)C(=O)N2CCN(C)C(CF)C2)cc1F)C(C1CC1)C1CC1` (single isomer, unassigned) [Compound 299], for which the IC50 was less than 10 nM in assay [1] (setting [3]) and 10 to 100 nM in assay [2].
In the same order, the values of `CCOC(=O)N[C@@H](CF)C(=O)N[C@@H](C(=O)N1CCN(C)[C@H](C)C1)[C@@H](C)c1ccc(NC(=O)[C@@H](NC(=O)C2(F)CC2)C(C2CC2)C2CC2)c(F)c1` [Compound 358] are less than 10 nM and 100 to 10000 nM.
On the same counts, the results for `CCOC(=O)N[C@@H](CF)C(=O)N[C@@H](C(=O)N1CCN(C)[C@H](C)C1)[C@@H](C)c1ccc(NC(=O)[C@@H](NC(=O)c2nonc2C)C(C2CC2)C2CC2)c(F)c1` [Compound 363] are less than 10 nM and 10 to 100 nM.
In the same order, the values of `CCn1nccc1C(=O)N[C@H](C(=O)Nc1ccc([C@H](C)[C@@H](NC(=O)[C@@H](C)F)C(=O)N2CCNC(CF)C2)cc1F)C(C1CC1)C1CC1` (single isomer, unassigned) [Compound 303] are 10 to 100 nM and 100 to 10000 nM.
`CCn1nccc1C(=O)N[C@H](C(=O)Nc1ccc([C@H](C)[C@@H](NC(=O)C(C)CC(F)(F)F)C(=O)N2CCN(C)[C@H](C)C2)cc1F)C(C1CC1)C1CC1` (single isomer, unassigned) [Compound 324]: the results for the IC50 in assay [1] (setting [3]) and in assay [2] were less than 10 nM and 10 to 100 nM, respectively.
For `CCn1nccc1C(=O)N[C@H](C(=O)Nc1ccc([C@H](C)[C@@H](NC(=O)C(C)(F)F)C(=O)N2CCN(C)[C@H](C)C2)cc1F)C(C1CC1)C1CC1` [Compound 292], the IC50 in assay [1] (setting [3]) is less than 10 nM; in assay [2], 10 to 100 nM.
In the case of `COCC(=O)N[C@@H](C(=O)N1CCN(C)[C@H](C)C1)[C@@H](C)c1ccc(NC(=O)[C@@H](NC(=O)c2nonc2C)C(C2CC2)C2CC2)c(F)c1` [Compound 348], the IC50 in assay [1] (setting [3]) is less than 10 nM; in assay [2] it was 100 to 10000 nM.
`CCn1nccc1C(=O)N[C@H](C(=O)Nc1ccc([C@H](C)[C@@H](NC(=O)[C@@H](C)F)C(=O)N2CCN(C)[C@H](C)C2)cc1F)C(C1CC1)C1CC1` [Compound 349]: the results for the IC50 in assay [1] (setting [3]) and in assay [2] were less than 10 nM and 100 to 10000 nM, respectively.
With `CO[C@@H](C)C(=O)N[C@@H](C(=O)N1CCN(C)[C@H](C)C1)[C@@H](C)c1ccc(NC(=O)[C@@H](NC(=O)c2nonc2C)C(C2CC2)C2CC2)c(F)c1` [Compound 308], the values for the IC50 in assay [1] (setting [3]) and in assay [2] were less than 10 nM and 100 to 10000 nM, respectively.
On to `CCOC(=O)N[C@@H](C)C(=O)N[C@@H](C(=O)N1CCN(C)CC1)[C@@H](C)c1ccc(NC(=O)[C@@H](NC(=O)c2nonc2C)C(C2CC2)C2CC2)c(F)c1` [Compound 361], for which the IC50 is less than 10 nM in assay [1] (setting [3]) and 10 to 100 nM in assay [2].
Regarding `CCOC(C)C(=O)N[C@@H](C(=O)N1CCN(C)CC1)[C@@H](C)c1ccc(NC(=O)[C@@H](NC(=O)c2ccnn2CC)C(C2CC2)C2CC2)c(F)c1` (single isomer, unassigned) [Compound 328], the IC50 is less than 10 nM in assay [1] (setting [3]) and 10 to 100 nM in assay [2].
On to `CCC(OC)C(=O)N[C@@H](C(=O)N1CCN(C)CC1)[C@@H](C)c1ccc(NC(=O)[C@@H](NC(=O)c2ccnn2CC)C(C2CC2)C2CC2)c(F)c1` (single isomer, unassigned) [Compound 340], for which the figures for the IC50 in assay [1] (setting [3]) and in assay [2] were less than 10 nM and 10 to 100 nM, respectively.
For `CCC(=O)N[C@@H](C(=O)N1CCN(C)[C@H](C)C1)[C@@H](C)c1ccc(NC(=O)[C@@H](NC(=O)c2ccnn2C)C(C2CC2)C2CC2)c(F)c1` [Compound 297], the IC50 in assay [1] (setting [3]) was less than 10 nM; in assay [2] it was 10 to 100 nM.
In the case of `CCn1nccc1C(=O)N[C@H](C(=O)Nc1ccc(C(C(NC(=O)[C@H](C)OC)C(=O)N2CCN(C)[C@H](C)C2)C(F)(F)F)cc1F)C(C1CC1)C1CC1` (single isomer, unassigned) [Compound 353], the IC50 in assay [1] (setting [3]) was less than 10 nM; in assay [2], 10 to 100 nM.
Regarding `C[C@@H](c1ccc(NC(=O)[C@@H](NC(=O)C2(F)CC2)C(C2CC2)C2CC2)c(F)c1)[C@@H](NC(=O)N(C)C1CC1)C(=O)N1CCN(C)CC1` [Compound 270], the figures for the IC50 in assay [1] (setting [3]) and in assay [2] were less than 10 nM and 100 to 10000 nM, respectively.
On to `CCn1nccc1C(=O)N[C@H](C(=O)Nc1ccc([C@H](C)[C@@H](NC(=O)[C@H](C)OC)C(=O)N2C[C@H]3C[C@@H](C2)N3C)cc1F)C(C1CC1)C1CC1` [Compound 307], for which the IC50 in assay [1] (setting [3]) is 10 to 100 nM; in assay [2], 100 to 10000 nM.
As to `CO[C@@H](C)C(=O)N[C@@H](C(=O)N1CCN(C)[C@H](C)C1)[C@@H](C)c1ccc(NC(=O)[C@@H](NC(=O)c2ccnn2C2CC2)C(C2CC2)C2CC2)c(F)c1` [Compound 342], the IC50 in assay [1] (setting [3]) is less than 10 nM; in assay [2], 10 to 100 nM.
Take `CCn1nccc1C(=O)N[C@H](C(=O)Nc1ccc([C@H](C)[C@@H](NC(=O)C(C)CC(F)(F)F)C(=O)N2CCN(C)CC2)cc1F)C(C1CC1)C1CC1` (single isomer, unassigned) [Compound 331]: the IC50 in assay [1] (setting [3]) was 10 to 100 nM; in assay [2] it was 100 to 10000 nM.
As to `CCOCCN(C)C(=O)N[C@@H](C(=O)N1CCN(C)[C@H](C)C1)[C@@H](C)c1ccc(NC(=O)[C@@H](NC(=O)c2ccnn2CC)C(C2CC2)C2CC2)c(F)c1` [Compound 313], the IC50 is 10 to 100 nM in assay [1] (setting [3]) and 100 to 10000 nM in assay [2].
With `CCn1nccc1C(=O)N[C@H](C(=O)Nc1ccc([C@H](C)[C@@H](NC(=O)C(C)C2CC2)C(=O)N2CCN(C)[C@H](C)C2)cc1F)C(C1CC1)C1CC1` (single isomer, unassigned) [Compound 310], the “IL17 AA HEK-5 pIC50” value in assay [1] (HEK-Blue IL-17 reporter cells) is reported as “A (pIC50 of greater than or equal 8 as A)”. The IC50 in assay [2] is 10 to 100 nM.
For `CCc1nonc1C(=O)N[C@H](C(=O)Nc1ccc([C@H](C)[C@@H](NC(=O)CF)C(=O)N2CCNC(CF)C2)cc1F)C(C1CC1)C1CC1` (single isomer, unassigned) [Compound 302], the IC50 was 10 to 100 nM in assay [1] (IL17 AA HEK-5 pIC50, HEK-Blue IL-17 reporter cells) and 100 to 10000 nM in assay [2].
Turning to `CCn1nccc1C(=O)N[C@H](C(=O)Nc1ccc([C@H](C)[C@@H](NC(=O)[C@H](C)OC)C(=O)N2CCN(C)[C@H](C)C2)cc1F)C(C1CC1)C1CC1` [Compound 221], the IC50 in assay [1] (setting [3]) is less than 10 nM; in assay [2], 10 to 100 nM.
`CCC(OC)C(=O)N[C@@H](C(=O)N1CCN(C)[C@H](C)C1)[C@@H](C)c1ccc(NC(=O)[C@@H](NC(=O)c2ccnn2CC)C(C2CC2)C2CC2)c(F)c1` (single isomer, unassigned) [Compound 335]: the IC50 is 10 to 100 nM in assay [1] (setting [3]) and 100 to 10000 nM in assay [2].
